Values quoted from earlier work as cited in patent US11633350B2, “Hypotonic microbicidal formulations and methods of use” (priority 2014, dated 2023).

Tests used:
HIV = details: PK/PD models

| plasma concentration associated with 90% protection (EC90) (HIV) [µg/mL] | Compound | systemic (blood) TFV peak (Cmax) concentration (after a single oral TDF dose) [ng/mL] | time to protection (in vivo) [days] | time to achieve protective concentrations of TFV-DP in tissue (in vivo, po) |
| --- | --- | --- | --- | --- |
|  | CC(C)OC(=O)OCOP(=O)(CO[C@H](C)Cn1cnc2c(N)ncnc21)OCOC(=O)OC(C)C.O=C(O)/C=C/C(=O)O [TDF, 2,4,6,8-Tetraoxa-5-phosphanonanedioic acid, 5-[[(1R)-2-(6-amino-9H-purin-9-yl)-1-methylethoxy]methyl]-, bis(1-methylethyl) ester, 5-oxide, (2E)-2-butenedioate (1:1)] | 350 | 3 | one week |
| 0.107 | C[C@H](Cn1cnc2c(N)ncnc21)OCP(=O)(O)O [tenofovir, (R)-9-(2-phosphonylmethoxypropyl)adenine] |  |  |  |
